Results reported in patent publication US20260234159A1, “SMALL MOLECULE TREATMENT OF FATTY LIVER DISEASE AND HCC” (SCANDIEDGE THERAPEUTICS AB, priority 2023, published 2026).
Read-outs that look alike come from different tables or passages of the source.

Tests used:
[1] = biological target: T1, JNK3 (Homo sapiens, UniProt P53779); assay: JNK enzyme activity assay, purified JNK3; assay type: biochemical; details: 10 μM; greatest inhibition was obtained for JNK3
T1 construct: purchased Thermo Fisher PV4563
Method: (§1) JNK activity was measured with JNK Activity Assay Kit (ab273417, Abcam). JNK activity assay was performed with purified JNK, JNK1 (PV3319, Thermo Fisher), JNK2 (PV3620, Thermo Fisher) JNK3(PV4563, Thermo Fisher). 0.3 μg of each JNK purified protein were incubated with c-Jun Protein/ATP in Kinase Assay Buffer for 1 hr followed by manufacturer's instruction with 10 μM small molecules. Catalysed substrate Phospho-c Jun (Ser 73) was detected by western blot analysis. Western blot analysis performed with JNK Activity Assay kit supplied anti-Phospho-cJun (Ser 73) Specific Antibody at 1:10,000 for overnight and Goat Anti-Rabbit HRP (ab205718, abeam) at 1:10,000 for 1 hr incubation as primary and secondary antibody.

[2] = biological target: T2, JNK2 (Homo sapiens, UniProt P45984); assay: JNK enzyme activity assay, purified JNK2; assay type: biochemical; details: 10 μM, Phospho-c Jun (Ser 73) by western blot
T2 construct: purchased Thermo Fisher PV3620
Method: as §1

[3] = biological target: T3, JNK1 (Homo sapiens, UniProt P45983); assay: JNK enzyme activity assay, purified JNK1; assay type: biochemical; details: 10 μM, Phospho-c Jun (Ser 73) by western blot
T3 construct: purchased Thermo Fisher PV3319
Method: as §1

[4] = MTT cell viability after one week steatosis (ranking of target molecules); assay type: cell-based, human; details: human, HepG2 cells (wild type); HepG2, 10 μM, one week steatosis induce media, MTT; Control 100.00
Method: (§2) HepG2 wild type cells were purchased from genome engineering company Synthego. Cells were maintained with Roswell Park Memorial Institute growth media, RPMI, 1640 (R2405, Sigma-Aldrich) and supplemented with 10% fetal bovine serum (FBS, F7524, Sigma-Aldrich), 1% penicillin-streptomycin (P/S, P4333, Sigma-Aldrich). Steatosis induction media was prepared as high glucose Dulbecco's Modified Eagle Media (DMEM, D0819, Sigma-Aldrich) with 10% FBS, 1% P/S media supplemented with 10 μg/ml insulin (I9278, Sigma-Aldrich), and 10 μM T0901317 (T2320, Sigma-Aldrich). HepG2 cells were seeded 6×10^4 cells per well for 96-well plate and 1×10^6 cells per well for 6-well plate. HepG2 cells were incubated with steatosis induce media (SM) for one week by 3 day+2 day+2 day with total three times media exchange.
(§3) HepG2 cells were seeded at 60,000 cells per well in 96 well plate. Using steatosis induce media, the cells were treated with 10 μM of target drugs for one week. The media was changed 3 times at day 0, day 3 and day 5. TAG assay was performed using MAK266-1KT SDS Triglyceride Quantification Colorimetric kit and cell viability analysis was performed using MTT assay.

[5] = tested on: JNK protein; assay: Cellular thermal shift assay (CETSA), protein-ligand binding; design: species or system human; details: 10 μM, 60° C.; versus JNK-IN-5A
Method: HepG2 cells were trypsinized and calculated at 1×10^6 cells into 1.5 ml micro centrifuge tube with 100 μl cell culture media. Cells were incubated in a CO2 incubator at 37° C. for 1 hr with 10 μM of each target drug. Drug treated cells were heated at 60° C. for 3 min using a heat plate. Heated cells were lysed with Native lysis buffer (ab156035, Abcam). Thermal shifted JNK proteins were detected with western blot analysis using JNK1+2+3 antibody (Ab179461, Abcam) and band intensity was analysed with ImageJ program.

[6] = tested on: HepG2 cells; assay: Triglyceride (TAG) measurement assay, one week steatosis model; assay type: cell-based, human; details: Homo sapiens
Method: as §2
HepG2 cells were seeded at 6×10^4 cells per well into 96 well plate and induced steatosis for one week with 10 μM of target drugs. After steatosis induction, cells were washed with 200 μl of phosphate buffered saline (PBS) and triglyceride contents was measured by Triglyceride Assay Kit—Quantification (ab65336, Abcam) following manufacturer's instruction. Optical density (O.D) values were detected with microplate reader at 570 nm (Hidex Sense Beta Plus).
as §3

[7] = tested on: HepG2 cells; assay: MTT cell viability / IC50 in growth media; assay type: cell-based, human; details: Homo sapiens, 48 h; HepG2, treatment for 2 days, 30 μM to 30 nM
Method: (§4) The cytotoxic effects of the synthesized drugs on the HepG2 cells were tested by MTT (Thiazolyl Blue Tetrazolium Bromide) method. HepG2 cells were seeded 2×10^4 cells per well in 96-well plate in 200 μL growth media. […] After the incubation period, 5 mg/ml MTT (M2128, Sigma-Aldrich) solution in PBS (10 μL) was added to each well. After 1 hr, the MTT solution and all media were removed from the wells. 100 μl of DMSO was added and mixed to dissolve the formazan crystals. Cell viability was analysed by measuring the absorbance of the dissolved formazan in a microplate reader at a wavelength of 570 nm with microplate reader (Hidex Sense Beta Plus).
(§5) HepG2 cells were maintained and used with RPMI 1640 (R2405, Sigma-Aldrich) supplemented with 10% fetal bovine serum (F7524, Sigma-Aldrich), 1% P/S (P4333, Sigma-Aldrich). 20,000 cells per well of HepG2 cells were seeded into a 96-well plate and triplicated for MTT assay and LDH assay. Cell viability was measured by MTT assay (M6494, ThermoFisher) and cytotoxicity was measured by LDH assay kit (ab65393, abcam) by following manufacturer's instructions. Optical density (O.D) was numerated using a microplate reader (Hidex Sense Meta Plus).

[8] = MTT cell viability / IC50 in growth media; assay type: cell-based, human; details: human, HepG2 cells; 10 μM, treatment for 2 days
Method: as §4, §5

[9] = tested on: HepG2 cells; assay: Wound healing assay; assay type: cell-based; details: Homo sapiens, HepG2, 96 h, day 4, untreated 100% wound closure, read-out: wound healing delayed by
Method: (§6) Transwell membrane was coated with 100 μl collagen (Sigma C3867, USA) diluted with PBS to a concentration of 1 mg/ml. After overnight incubation at 4° C., the collagen solution was discarded and the membrane was washed with PBS. 100,000 cells in 200 μl serum free media together with the tested compounds were added into the upper well and 600 μl of 10% FBS supplemented growth media was added to the lower well as an invasive attractant in a 24-well plate. Cells were incubated at 37° C. in a CO2 incubator for one day. The cells were fixed with 3.7% formaldehyde for 30 minutes at room temperature and washed with PBS twice. The cells were stained with 1% crystal violet in PBS for 20 minutes and residual cells in inner membrane were swabbed gently with a cotton swab. Invaded cells located at the outer membrane were imaged by ZOE Fluorescent Cell Imager (Bio-Rad, USA) and counted by image. For wound healing assay, 100,000 cells per well were seeded into 24-well plates and grown until 95-100% confluent. Linear wound was created by using a 200 μl pipette tip. Image was recorded at the time point of day 0 until control group wound closure with 1 μM of compounds by ZOE Fluorescent Cell Imager (Bio-Rad, USA). Wound areas were measured using ImageJ software.

[10] = tested on: HepG2 cells; assay: FACs analysis with PI staining (cell cycle); assay type: cell-based, human; details: PI FACs, 10 μM, 2 days
Method: 400,000 HepG2 cells were seeded in a 6-well plated and treated with 10 μM of the compounds for 2 days. Cells were fixed with 70% ethanol and stained with 50 μg/ml PI. Prepared cells were analysed using BD FACS Canto II Flow Cytometry system at PE-A channel 10,000 cells per group. The data was histogram plotted with BD FACSDiva 9.0.

[11] = tested on: JNK1/2/3; assay: Western blot, JNK1/2/3 P54 and p46 isoforms; assay type: cell-based, human; details: 10 μM, 2 days
Method: HepG2 cells were seeded into a 6-well plate at 400,000 cells per well. After treatment with 10 μM of JNK-IN-5A and its derivatives for two days, lysates were harvested with CelLytic M (C2978, Sigma-Aldrich). […] SDS PAGE were performed using Mini-PROTEAN® TGX™ Precast Gels (Bio-Rad) and transferred using Trans-Blot® Turbo™ Transfer System (Bio-Rad). […] ImageQuantTMLAS 500 (29-0050-63, GE) was used to detect protein bands.

[12] = tested on: HepG2 cells; assay: MTT cell viability after one week steatosis (ranking of target molecules); assay type: cell-based, human
Method: as §2, §3

[13] = tested on: HepG2 cells; assay: Mitochondrial membrane potential assay (TMRE); assay type: cell-based, human; details: 10 μM, one day
Method: HepG2 cells were seeded into a 6-well plate at 400,000 cells per well. After treatment with the compounds at desired concentration and time, TMRE (ab113852, abcam), Autophagy (ab139484, abcam), ROS (ab113851, abcam), and Lipid peroxidation (ab243377, abcam) assay were performed according to manufacturer's instructions. Fluorescence images were taken using ZOE™ Fluorescent Cell Imager (Biorad) and ROI of fluorescence intensity was measured and calculated by Image J. For microplate reader florescence assay, 40,000 of HepG2 cells were seeded into a 96-well plate and triplicated. GFP (Ex480 nm, Em530 nm) and RFP (Ex549 nm, Em574 nm) were measured using a microplate reader (Hidex Sense Meta Plus).

[14] = tested on: HepG2 cells; assay: Invasion assay (transwell); assay type: cell-based, human; details: Homo sapiens, HepG2, 24 hr, read-out: invasiveness reduced by
Method: The effects of the treatment with the compounds on the invasion ability of HepG2 and Huh7 cells were determined by 8 μm pores transwell chamber (Corning™ 3464, USA).
as §6

[15] = 168 h, HepG2, 10 μM, one week steatosis induce media, Control 100.00, read-out: TAG (%)
[16] = HepG2, 168 h, ratio between TAG content and cell viability, Control 100.0, read-out: TAG/cell viability

T3 sequence (P45983 whole entry): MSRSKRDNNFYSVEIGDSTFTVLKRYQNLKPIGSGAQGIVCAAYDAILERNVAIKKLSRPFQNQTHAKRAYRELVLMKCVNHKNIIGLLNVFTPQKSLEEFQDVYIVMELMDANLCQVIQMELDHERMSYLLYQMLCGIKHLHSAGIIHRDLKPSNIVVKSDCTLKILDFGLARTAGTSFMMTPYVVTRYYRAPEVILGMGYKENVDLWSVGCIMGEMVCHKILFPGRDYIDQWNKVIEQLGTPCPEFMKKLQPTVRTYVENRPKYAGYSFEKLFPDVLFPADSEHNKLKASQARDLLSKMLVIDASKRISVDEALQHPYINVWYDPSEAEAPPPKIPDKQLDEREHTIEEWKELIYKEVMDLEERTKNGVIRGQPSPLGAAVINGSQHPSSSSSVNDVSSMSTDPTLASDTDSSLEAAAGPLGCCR
T1 sequence (P53779 whole entry): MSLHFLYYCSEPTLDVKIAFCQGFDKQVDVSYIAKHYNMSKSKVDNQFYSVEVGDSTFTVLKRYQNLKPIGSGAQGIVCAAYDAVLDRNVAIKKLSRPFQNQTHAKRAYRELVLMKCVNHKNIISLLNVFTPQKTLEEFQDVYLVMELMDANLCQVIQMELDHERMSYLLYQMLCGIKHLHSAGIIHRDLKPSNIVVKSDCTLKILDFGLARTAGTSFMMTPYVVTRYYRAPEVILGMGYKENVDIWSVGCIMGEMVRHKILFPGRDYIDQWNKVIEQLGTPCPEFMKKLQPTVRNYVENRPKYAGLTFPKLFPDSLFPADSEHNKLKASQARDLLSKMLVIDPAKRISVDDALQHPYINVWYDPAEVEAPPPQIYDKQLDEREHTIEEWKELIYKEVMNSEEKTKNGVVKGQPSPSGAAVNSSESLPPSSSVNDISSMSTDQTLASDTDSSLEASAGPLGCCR
T2 sequence (P45984 whole entry): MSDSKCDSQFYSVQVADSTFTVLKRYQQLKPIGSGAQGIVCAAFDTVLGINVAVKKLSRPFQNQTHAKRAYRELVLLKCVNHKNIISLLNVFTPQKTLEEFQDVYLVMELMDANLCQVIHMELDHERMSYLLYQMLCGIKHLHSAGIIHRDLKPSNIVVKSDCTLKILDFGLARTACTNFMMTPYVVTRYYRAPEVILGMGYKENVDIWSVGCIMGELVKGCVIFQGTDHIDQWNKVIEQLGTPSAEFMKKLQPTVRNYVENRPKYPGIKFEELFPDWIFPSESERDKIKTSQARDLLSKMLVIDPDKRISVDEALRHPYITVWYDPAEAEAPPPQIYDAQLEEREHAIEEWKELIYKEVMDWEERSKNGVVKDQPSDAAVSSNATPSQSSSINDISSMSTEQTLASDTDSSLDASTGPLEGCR

SMILES	JNK3 activity [1]	JNK2 activity [2]	JNK1 activity [3]	viability at 1 week, 10 µM [4] [%]	binding to the JNK protein [5]	activity at 10 µM [6, 15] [%]	activity at 10 µM [6, 16] [%]	IC50 [7] [µM]	viability at 2 days, 10 µM [8] [%]	inhibition at 1 µM [9] [%]	Cell population G0/G1 [10]	Cell population G2/M [10]	Cell population S [10]	JNK1/2/3 p46 expression [11]	cell viability of HepG2 [12]	mitochondrial membrane potential [13]	inhibition at 1 µM [14] [%]
CN(C)C(=O)N1CCc2c(sc(NC(=O)c3cccc4ccccc34)c2C#N)C1 [PKL-A117]	inhibited	inhibited	inhibited	40.6	better binding	12.8	31.4	–	–	–	–	–	–	–	–	–	–
N#Cc1c(NC(=O)c2cccc3ccccc23)sc2c1CCN(C(=O)Nc1ccccc1F)C2 [PKL-A119]	inhibited	inhibited	inhibited	40.1	better binding	12.5	31.2	–	–	–	–	–	–	–	–	–	–
CC(C)(C)OC(=O)N1CCc2c(sc(NC(=O)c3cccc4ccccc34)c2C#N)C1 [PKL-A131]	inhibited	inhibited	inhibited	44.8	better binding	13.1	29.3	–	–	–	–	–	–	–	–	–	–
COc1ccc(C(=O)N2CCc3c(sc(NC(=O)c4cccc5ccccc45)c3C#N)C2)cc1OC [PKL-A132]	inhibited	inhibited	inhibited	40.3	better binding	12.8	31.9	–	–	–	–	–	–	–	–	–	–
N#Cc1c(NC(=O)c2cccc3ccccc23)sc2c1CCN(C(=O)Nc1ccccc1Cl)C2 [PKL-A156]	–	–	–	26.6	–	13.5	50.8	15.9	53.7	26.2	30.1	60.8	2.3	not significantly altered	exceptionally low cell viability	significantly decreased	14
N#Cc1c(NC(=O)c2cccc3ccccc23)sc2c1CCN(C(=O)Nc1ccccc1C(F)(F)F)C2 [PKL-A158]	–	–	–	9.59	–	8.35	–	7.6	51.9	39.5	31.6	60.3	3.5	not significantly altered	exceptionally low cell viability	significantly decreased	20.8
